Assays:
[1] = test system: Monoclonal Antibody TCA 1.1; assay: Competitive microplate ELISA of imipramine with monoclonal antibody TCA 1.1, wells coated with compound 11 conjugate; type: binding, mouse; details: compound 11 coated wells, mAb TCA 1.1
Method: (§1) To analyze the sera for antibody content an ELISA assay using the cognate antigen linked to a different protein (2-carboxypropyl-dihydroamitriptyline-BSA) (compound 11) was used. This antigen was diluted to 5 μg/ml in 0.1 M carbonate buffer, pH 9.5. A volume of 100 μl of this antigen solution was pipetted into wells of a polystyrene 96-well microplate (Costar, Cambridge, Mass.). This was incubated in a plastic bag at 37° C. for 1 hour. The solutions were then removed via suction, and wells were filled with a blocking solution. This consisted of gelatine hydrolysate, 1%, sucrose, 2%, Tris, 0.15 M, pH 7.4 (all reagents from Sigma Chemicals). This was allowed to block the plates for 1 hour at room temperature in plastic bags. Wells were then emptied via suction.
(§2) Dilutions of the sera were prepared by transferring 1 μl to a glass test tube containing 1 ml of phosphate buffered saline, with 0.1% Tween 20 (PBS-T). One hundred and fifty microliters of this dilution of each serum were transferred to wells in Row A of a polyvinyl chloride microplate. All other wells were filled with 100 μl of PBS-T. Serial three-fold dilutions were prepared by transferring 50 μl from Row A to Row B using a multi-channel micropipettor. Mixing was accomplished by re-pipetting 3 times. This was repeated from Row B to C and so on down each column of wells.
(§3) Once all dilutions were prepared, 95 μl of each, starting with Row H, was transferred to the same row in the coated plate. The plate was placed in a Ziploc plastic bag with a damp piece of paper towel and incubated at 37° C. for one hour. Following incubation, the wells were washed four times manually with 300 μl aliquots of PBS-T. A 1:5000 dilution of goat anti-mouse IgG AM-HRP conjugate (Kirkegaard & Perry, Gaithersburg, Md.) was prepared in PBS-T. 100 μl of this was then pipetted into each well, the plate again incubated as above. The plate was then washed 6 times with 300 μl of PBS-T manually, and 100 μl of K-Blue substrate (Neogen, Lexington, Ky.) was added to each well. This was allowed to develop in the dark for 5 minutes, and the reaction was then stopped by the addition of 100 μl of a 2 M phosphoric acid solution. The optical densities of the wells were read using a Molecular Devices Tmax plate reader and a Macintosh computer.
(§4) Hybridoma clone TCA 1.1 was placed into high-density culture and supernatant harvested. This preparation was preserved by the addition of thimerosal to a concentration of 0.02%. Antibody content was evaluated by a titer experiment in which varying dilutions of supernatant were placed into microplate wells coated with a constant amount of antigen conjugate.
(§5) Incubation for 1 hour at 37° C. was followed by the same procedure as for the screening assays. Optical densities were plotted versus the final concentration of imipramine calculated as a molar (gram-molecular weight drug per liter) concentration.

[2] = test system: Monoclonal Antibody TCA 1.1; assay: Competitive microplate ELISA of imipramine with monoclonal antibody TCA 1.1, wells coated with compound 27 conjugate; type: binding, mouse; details: compound 27 coated wells, mAb TCA 1.1
Method: as §1, §2, §3
This animal received a booster immunization of 100 μg of antigen in incomplete Freund's adjuvant four days before the fusion was performed. The myeloma cell line F0 (ATCC, Manassas, Va.) was used for the fusion. The fusion was performed by the method of de St Groth and Scheidegger, Journal of Immunol. Meth. 35, 1-21, 1980. Ten days later hybrid cell cultures were ready for screening.
as §4, §5

[3] = imipramine final concentration 1.98 × 10^−6 molar
[4] = imipramine final concentration 2.2 × 10^−7 molar
[5] = imipramine final concentration 2.45 × 10^−8 molar
[6] = imipramine final concentration 6.6 × 10^−7 molar
[7] = imipramine final concentration 7.43 × 10^−8 molar
[8] = imipramine final concentration 8.15 × 10^−9 molar

CN(C)CCCN1c2ccccc2CCc2ccccc21 [Imipramine, imipramine]
OD450 compound 11 [1, 3]: 0.056
OD450 compound 11 [1, 4]: 1.35
OD450 compound 11 [1, 5]: 2.325
OD450 compound 11 [1, 6]: 0.541
OD450 compound 11 [1, 7]: 1.95
OD450 compound 11 [1, 8]: 2.6
OD450 compound 27 [2, 3]: 0.037
OD450 compound 27 [2, 4]: 0.276
OD450 compound 27 [2, 5]: 1.719
OD450 compound 27 [2, 6]: 0.038
OD450 compound 27 [2, 7]: 1.124
OD450 compound 27 [2, 8]: 2.434

Reference: US6368814B1, “Tricyclic antidepressant derivatives and immunoassay” (Roche Diagnostics Corporation, priority 2000, dated 2002)
